{"source": "patent EP0280873A1", "about": "“Piperidines, medicines containing them and process for their preparation” (Dr. Karl Thomae GmbH, priority 1987, dated 1988)", "key": {"Dopamin (D₂)-Rezeptor": {"target": "T1, Dopamin (D₂)-Rezeptor (Rattus norvegicus, UniProt P61169)", "T1 construct": "Die Striata werden herauspräpariert und in 25 ml eiskaltem Puffer; from tissue; host or cells: rat striatum membrane homogenate", "T1 sequence (P61169 whole entry)": "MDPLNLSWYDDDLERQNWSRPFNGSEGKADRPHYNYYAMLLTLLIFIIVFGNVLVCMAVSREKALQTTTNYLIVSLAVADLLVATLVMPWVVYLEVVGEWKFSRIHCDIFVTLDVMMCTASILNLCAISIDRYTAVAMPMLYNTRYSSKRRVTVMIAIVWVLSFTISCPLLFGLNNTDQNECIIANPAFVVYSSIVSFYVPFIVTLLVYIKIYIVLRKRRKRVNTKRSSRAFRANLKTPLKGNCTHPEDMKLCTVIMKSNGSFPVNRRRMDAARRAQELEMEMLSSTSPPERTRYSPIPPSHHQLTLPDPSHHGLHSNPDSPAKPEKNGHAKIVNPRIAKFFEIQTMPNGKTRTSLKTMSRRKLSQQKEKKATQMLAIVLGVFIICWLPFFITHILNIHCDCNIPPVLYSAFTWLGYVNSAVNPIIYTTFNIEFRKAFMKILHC", "test": "Dopamine (D2) receptor binding affinity, 3H-spiroperidol displacement in rat striatal homogenate", "set-up": "species or system Ratten", "protocol": "1.) Bestimmung der Dopamin (D₂)-Rezeptorbindungsaffinitäten nach der modifizierten Methode von D.J. de Vries und P.M. Beart (Europ. J. Pharmacology 109, 417-419 (1985)):\nRatten werden durch Schlag betäubt, dekapitiert und das Ge hirn entnommen. Die Striata werden herauspräpariert und in 25 ml eiskaltem Puffer (50 mM TRIS-HCl, 1 mM EDTA, 5 mM MgCl₂, 1mM Ascorbinsäure, pH=7,20) homogenisiert. Das Homogenat wird 15 Minuten bei 0°C und 50000 × g zentrifugiert. Der Überstand wird verworfen. Das Pellet wird durch Resuspension und erneute Zentrifugation zweimal gewaschen und anschließend bei 37°C eine halbe Stunde vorinkubiert. Das Inkubat wird wie zuvor beschrieben zentrifugiert und der Überstand verworfen. Das Pellet wird in 60 ml Puffer resuspen diert, homogenisiert und dann mit Puffer 1:500 bezogen auf das Striatagewicht verdünnt.\nFür den Inkubationsansatz werden 10 µl ³H-Spiroperidol-Lö-sung ([…]; Endkonzentration: 2,5 × 10⁻¹⁰ M), 970 µl Puffer sowie 20 µl Testsubstanzlösung (Endkonzentration: 10⁻¹¹-10⁻⁴ M) vorgelegt. Die unspezifische Bindung wird in Gegenwart von 1 µM Haloperidol bestimmt. Durch Zugabe von 1 ml Homogenatlösung zu dieser Vorlage wird der Assay gestartet. Die Inkubationszeit beträgt 60 Minuten bei Raumtemperatur. Nach Ablauf dieser Zeit wird das Inkubat über ein GF/B-Filter abgesaugt und mit 15 ml eiskaltem Puffer gewaschen. Das feuchte Filter wird mit Instagel® versetzt und über Nacht extrahiert. Anschließend wird die verbliebene Radioaktivität in einem Packard CA 2000 Szintillationscounter bei einer Zählausbeute von 50-55 % gezählt.\nMit Hilfe eines 2-Bindungsstellen-Iterationsprogrammes werden die IC₅₀-Werte ermittelt und daraus die Ki-Werte berechnet."}, "Dopamin-Autorezeptoren": {"test_system": "Dopamin-Autorezeptoren", "test": "Inhibition of dopamine turnover (AMPT-induced fall of whole-brain dopamine) in mice", "assay_type": "in vivo, Mäusen", "details": "5 mg/kg s.c., AMPT 250 mg/kg i.p. at 15 min, whole brain dopamine at 4 h 15 min", "protocol": "2. Bestimmung der Dopaminturnoverhemmung:\nDie Dopaminturnoverhemmung wurde an Mäusen gemessen. Bei Tieren, die mit α-Methyl-p-tyrosin (AMPT) (250 mg/kg i.p.) zum Zeitpunkt 15 Minuten des Experimentes behandelt werden, fällt die Dopaminkonzentration im Gesamthirn mit fortschreitender Versuchsdauer ab. Durch Substanzen, die an Dopamin-Autorezeptoren wirken, kann der Dopaminabfall (im Vergleich zu mit Kochsalzlösung behandelten Kontrolltieren) verhindert werden. Testsubstanzen werden zum Zeitpunkt 0 des Experiments subkutan appliziert (5 mg/kg s.c.). Zum Zeitpunkt 4 Stunden und 15 Minuten des Experiments werden die Tiere getötet und die Gehirne der Dopaminbestimmung mittels Hochdruckflüssigkeitschromatographie mit elektrochemischer Detektion zugeführt. Bestimmt wird die durch die Testsubstanz bewirkte prozentuale Hemmung des durch AMPT induzierten Dopaminabfalls: […]"}, "[1]": {"test_system": "mit Reserpin behandelten Maus", "test": "Anti-Parkinson effect: induction of motility in mice treated with reserpine 24 h earlier", "assay_type": "in vivo", "details": "2 mg/kg s.c., measured 20 min later, group of 6 mice, x ± sx; saline controls ca. 5", "protocol": "3. Bestimmung der Anti-Parkinson-Wirkung nach der Methode von Hinzen D. et al., European Journal of Pharmacology 131, 75-88 (1986):\na) Motilitätsauslösung an der 24 Stunden zuvor mit Reserpin behandelten Maus:\nMäuse werden 24 Stunden vor dem Experiment mit 5 mg/kg Reserpin i.p. behandelt; die Tiere werden bei 25-30°C gehalten und 3 × mit 2 ml einer 5%igen Glucose-lösung in Tyrode s.c. behandelt. Gruppen zu je 6 Tieren erhalten die Testsubstanz mit 2 mg/kg s.c. injiziert. 20 Minuten später werden die Tiere zur Aktivitätsmessung in Beobachtungskäfige gesetzt, die mit einer Infrarotlichtschranke ausgerüstet sind. Meß-wert ist die Häufigkeit des Passierens des Infrarotstrahles durch eine Gruppe von 6 Mäusen in 5 Minuten (\"Laufimpulse/5 Minuten\").\nPro Substanz werden 6 Gruppen geprüft. Kontrolltiere erhalten isotone Kochsalzlösung s.c..\nAls Ergebnis werden die mit der Testsubstanz erzielten Laufimpulse/5 Minuten dargestellt (x ± sx) Kontrolltiere (Kochsalzlösung) zeigen minimale Aktivität (ca. 5 Laufimpulse/5 Minuten)."}, "MPTP-Affen": {"test_system": "MPTP-Affen", "test": "Anti-Parkinson effect: abolition of Parkinson symptoms in the MPTP monkey", "assay_type": "in vivo, Rhesusaffen", "details": "for Dauer (Wirkungsdauer): at the minimal dose; for minimal effective dose: Macaca mulatta, im, read-out: Dosis (Mindestdosen, die zur Aufhebung der Parkinsonsymptomatik führen)", "from_the_text": "b) Aufhebung der Parkinsonsymptome am MPTP-Affen nach der modifizierten Methode von Burns, R.S. und Chuang, C.: Proc. Natl. Acad. Sci. 80, 4546-4550 (1983):\nDas durch das Neurotoxin 1-Methyl-4-phenyl-1,2,3,6-tetrahydro-pyridin (MPTP) beim Menschen und beim Affen ausgelöste, irreversible neurologische Krankheitsbild ähnelt in seiner klinischen, pathologischen, biochemischen und pharmakologischen Ausprägung weitgehend der idiopathischen Parkinson'schen Erkrankung (Markey et al., Nature 311, 464 (1984)). Ursache dieser überzeugenden Übereinstimmung ist die Tatsache, daß MPTP selektiv jene dopaminergen Nervenzellen in der Substantia nigra des Gehirns zerstört, welche auch bei der natürlich auftretenden Parkinson'schen Erkrankung durch degenerative Prozesse zerstört werden. Es wird diskutiert, daß auch die Ursache der idiopathischen Parkinson'schen Erkrankung im Organismus entstehendes MPTP oder eine ähnliche chemische Verbindung ist (Snyder, S.H., Nature 311, 514 (1984)). Möglicherweise bedingt durch den spezifischen Metabolismus des MPTP ist die klinische Ausprägung des MPTP-Parkinson'bildes bisher außer beim Menschen nur beim Affen nachweisbar.\nDas an Rhesusaffen verwirklichte MPTP-Modell ist daher in hervorragendem Maße geeignet, die Wirkung von Anti-Parkinson-Medikamenten zu prüfen. Insgesamt 7 Rhesusaffen waren an dem Versuch beteiligt. Sie hatten über mehrere Tage verteilt, kumulative Dosen von 2,4-6,25 mg/kg MPTP erhalten, bis stabile und irreversible Parkinson-Symptome aufgetreten waren. Im Vordergrund der Symptomatik stand die Bradykinesie, die alle Tiere zeigten, teilweise sogar bis hin zur Akinesie. Kein Tier war in der Lage, spontan Wasser oder Futter aufzunehmen. Die Reaktivität war stark vermindert, meist verharrten die Tiere in einer typischen Beugehaltung. Tremor wurde gelegentlich gesehen. Die Extremitäten wiesen einen Rigor auf. Bei dem Versuch einer Willkür-Motorik traten häufig klonische Krämpfe auf.\nDie nachfolgenden Verbindungen wurden jeweils an 2-3 der so vorbehandelten Tiere getestet. Bei intramuskulärer Gabe wurden nach etwa 5 bis 10 Minuten erste koordinierte Willkürbewegungen möglich, die in den folgenden 10 bis 30 Minuten von einer allmählichen, weitestgehenden Normalisierung der Motorik gefolgt waren. Die Tiere waren in der Lage, Nahrung aufzunehmen. Sie verhielten sich innerhalb ihrer Käfige regelgerecht, dies galt auch hinsichtlich Vigilanz und artspezifischen Verhaltens. Als Restsymptomatik wurde gelegentlich leichter Ruhetremor registriert.\nSobald die Wirkung der Verbindungen nachließ, verfielen die Tiere wieder in die oben beschriebene Parkinson-Symptomatik; eine erneute Applikation der Verbindungen führte wieder zur Besserung bzw. weitgehenden Aufhebung der klinischen Erscheinungen.\nNebenwirkungen traten in den bisher angewandten Dosierungen nicht in Erscheinung.\nIn der nachfolgenden Tabelle werden sowohl die Mindestdosen, die zur Aufhebung der Parkinsonsymptomatik führen, angegeben, als auch die Wirkungsdauer."}, "Mäusen": {"test_system": "Mäusen", "test": "Toxicity in mice, oral dosing", "assay_type": "in vivo", "details": "doses up to 500 mg/kg p.o.", "from_the_text": "Ferner sind die erfindungsgemäß hergestellten Verbindungen weitgehend untoxisch. So konnten z."}, "[2]": {"details": "rat striata, 3H-Spiroperidol 2,5 × 10⁻¹⁰ M, 60 min at room temperature, Ki calculated from IC50, read-out: Ki"}, "[3]": {"details": "MPTP-treated rhesus monkeys, i.m."}}, "note": "Where a name gives a salt, the structure may show the parent alone. Read-outs that look alike come from different tables or passages of the source.", "data": [{"smiles": "CCCN1CCC=C(c2csc(N)n2)C1", "note": "[Substanz A, 2-Amino-4-(1-propyl-1,2,3,6-tetrahydro-pyridin-5-yl)-thiazol]", "values": [{"measurement": "Ki", "setting": "Dopamin (D₂)-Rezeptor; [2]", "value": 0.036, "unit": "µM"}, {"measurement": "Hemmung des Dopaminabfalls", "setting": "Dopamin-Autorezeptoren", "value": 35, "unit": "%"}, {"measurement": "Zahl der Laufimpulse/5 min", "setting": "[1]", "value": "44 ± 4", "unit": "Laufimpulse/5 min"}]}, {"smiles": "C=CCN1CCC=C(c2csc(N)n2)C1", "note": "[Substanz B, 2-Amino-4-(1-allyl-1,2,3,6-tetrahydro-pyridin-5-yl)-thiazol]", "values": [{"measurement": "Ki", "setting": "Dopamin (D₂)-Rezeptor; [2]", "value": 0.008, "unit": "µM"}, {"measurement": "Zahl der Laufimpulse/5 min", "setting": "[1]", "value": "52 ± 9", "unit": "Laufimpulse/5 min"}, {"measurement": "Dauer (Wirkungsdauer)", "setting": "MPTP-Affen; [3]", "value": "2-5 Std."}, {"measurement": "minimal effective dose", "setting": "MPTP-Affen; MPTP-treated rhesus monkeys, 2-3 animals per compound, i.m.", "value": 0.05, "unit": "mg/kg"}]}, {"smiles": "C=CCN1CC=C(c2csc(N)n2)CC1", "note": "[Substanz C, 2-Amino-4-(1-allyl-1,2,3,6-tetrahydro-pyridin-4-yl)-thiazol]", "values": [{"measurement": "Ki", "setting": "Dopamin (D₂)-Rezeptor", "value": 0.022, "unit": "µM"}, {"measurement": "Hemmung des Dopaminabfalls", "setting": "Dopamin-Autorezeptoren", "value": 47, "unit": "%"}, {"measurement": "Zahl der Laufimpulse/5 min", "setting": "[1]", "value": "32 ± 7", "unit": "Laufimpulse/5 min"}, {"measurement": "Dauer (Wirkungsdauer)", "setting": "MPTP-Affen; [3]", "value": "2-4 Std."}, {"measurement": "minimal effective dose", "setting": "MPTP-Affen", "value": 0.35, "unit": "mg/kg"}, {"measurement": "Todesfälle", "setting": "Mäusen", "value": "keine Todesfälle"}]}, {"smiles": "CCCN1CC=C(c2csc(N)n2)CC1", "note": "[Substanz D, 2-Amino-4-(1-propyl-1,2,3,6-tetrahydro-pyridin-4-yl)-thiazol]", "values": [{"measurement": "Ki", "setting": "Dopamin (D₂)-Rezeptor", "value": 0.006, "unit": "µM"}, {"measurement": "Hemmung des Dopaminabfalls", "setting": "Dopamin-Autorezeptoren", "value": 80, "unit": "%"}, {"measurement": "Zahl der Laufimpulse/5 min", "setting": "[1]", "value": "80 ± 10", "unit": "Laufimpulse/5 min"}, {"measurement": "Dauer (Wirkungsdauer)", "setting": "MPTP-Affen; [3]", "value": "2-3 Std."}, {"measurement": "minimal effective dose", "setting": "MPTP-Affen", "value": 0.03, "unit": "mg/kg"}]}, {"smiles": "Nc1nc(C2=CCCNC2)cs1", "note": "[Substanz E, 2-Amino-4-(1,2,3,6-tetrahydro-pyridin-5-yl)thiazol-dihydrochlorid]", "values": [{"measurement": "Ki", "setting": "Dopamin (D₂)-Rezeptor; [2]", "value": 0.003, "unit": "µM"}]}, {"smiles": "CCCN1CCC(c2csc(N)n2)CC1", "note": "[Substanz F, 2-Amino-4-(1-propyl-piperidin-4-yl)thiazol]", "values": [{"measurement": "Ki", "setting": "Dopamin (D₂)-Rezeptor", "value": 0.038, "unit": "µM"}, {"measurement": "Hemmung des Dopaminabfalls", "setting": "Dopamin-Autorezeptoren", "value": 59, "unit": "%"}, {"measurement": "Zahl der Laufimpulse/5 min", "setting": "[1]", "value": "65 ± 17", "unit": "Laufimpulse/5 min"}, {"measurement": "Dauer (Wirkungsdauer)", "setting": "MPTP-Affen; [3]", "value": "2-3 Std."}, {"measurement": "minimal effective dose", "setting": "MPTP-Affen", "value": 0.2, "unit": "mg/kg"}]}]}
